In brackets after ≈: the same amount, converted by molar mass. Entries after “also recorded” stand apart in the source; their conditions may differ. Read-outs that look alike come from different tables or passages of the source.
Legend:
[1] = test system: Balb/c mice sensitized to ovalbumin; experiment: 8-day murine model of allergic eosinophilic airway inflammation; format: in vivo, mouse; settings: for IC50 on eosinophil recruitment: intranasal, 2 h before each challenge, in PBS/Cdx, bronchoalveolar lavage 24 h after last challenge
Experimental: In vivo dose-response effect of a topical treatment with chalcone-4 and compound (1) of formula (I) in an 8-day mouse model of allergic eosinophilic airway inflammation. Balb/c mice were sensitized to ovalbumin (OVA, 50 μg) in the presence of 2 mg alum (IP. injection on days 0, 1 and 2) and challenged with OVA (10 μg) or saline (IN.) on days 6, 7 and 8. Increasing doses of chalcone-4 (gray line) or compound (1) (black line) solubilized in 10% hydroxypropyl-B-cyclodextrine (Cdx) were administered by the intranasal route 2 h before each challenge. Bronchoalveolar lavage was performed 24 h after the last challenge, and inflammatory cells including eosinophils counted. The percentage of inhibition of eosinophil recruitment is shown. Data points are means and bars are S.E.M. values of n=6 determinations.
The in vivo activity of compound (1) was tested in the 8-day murine model of allergic eosinophilic airway inflammation previously described^13.
Briefly, Balb/c mice were sensitized to ovalbumin (OVA) and challenged 3 times with OVA or saline at 24 h interval. Treatments with each compound (300 nmol/kg in 10% PBS/Cdx) were administered by the intranasal route 2 h before each challenge. Bronchoalveolar lavage was performed 24 h after the last challenge, and eosinophil, macrophage, neutrophil and lymphocyte numbers quantified.
Using the same protocol, the dose-response of compound (1) and chalcone-4 was evaluated on eosinophil recruitment after intranasal administration (FIG. 1).

[2] = Solubility in assay media; format: physicochemical
Experimental: Their solubility in assay media was evaluated. (2-Hydroxypropyl)-o-cyclodextrin (Cdx) was used as excipient because of its low toxicity and its capacity to increase bioavailability. […] The compound stability was evaluated in PBS only and in PBS/Cdx.

[3] = molecular target: T1, CXCR4-CXCL12 binding (Homo sapiens, UniProt P48061); experiment: Inhibition of CXCL12-TR binding to CXCR4-GFP (FRET); settings: 10 μM
T1 construct: expressed in transfected cells
T1 sequence (P48061 22-89 limits assumed): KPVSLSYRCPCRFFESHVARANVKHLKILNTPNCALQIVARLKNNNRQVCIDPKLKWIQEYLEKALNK
Experimental: Study of the changes of CXCR4-CXCL12 binding was achieved by the energy transfer technique^10,11.
Binding of Texas red-labelled CXCL12 with CXCR4-GFP fused receptor^11 induces fluorescence resonance energy transfer (FRET), which can be monitored by the reduction of GFP fluorescence emission. The characterization of CXCL12 neutraligands was evaluated in two conditions, differing by the sequence of addition of molecules. Reduction of GFP fluorescence emission was more important when neutraligands were preincubated (30 min) […] prior to the addition to cells.
The CXCR4 antagonist, T134 (20 μM) was used as a control in both incubation protocols. Data obtained were consistent with a binding to the chemokine and not to its receptor. Consequently, all selected compounds are indeed CXCL12 chemokine neutraligands and behave as chalcone-4. The neutralizing properties of the compounds are thus confirmed.

[4] = test system: SuHx Wistar rats; experiment: SU-5416/Hypoxia rat model of pulmonary hypertension; format: in vivo; settings: 100 mg/kg/day i.p.; for Pulmonary vascular remodeling: H&E and alpha-SMA staining of lung sections; for Total pulmonary vascular resistance (TPVR): curative protocol, vs vehicle-treated SuHx rats
Experimental: FIG. 6A: In vivo effect of chalcone-4 and compound (1) in the SU-5416 (20 mg/kg)/Hypoxia (SuHx) rat model of PH on total pulmonary vascular resistance, cardiac output and right ventricular hypertrophy. Male Wistar rats (100 g upon arrival in the laboratory; Janvier Labs, France) served as experimental subjects. SU-5416 (20 mg/kg) was injected subcutaneously and the rats were placed in normobaric hypoxia (10% FiO2) for 3 weeks for PH to develop, and were then left for 2 weeks in normoxia. Rats were treated either with chalcone-4 or compound (1) at a dose of 100 mg/kg i.p. as compared with vehicle-treated SuHx rats. In addition, a group of healthy rats with no PH were used as the control group (CTR). The total pulmonary vascular resistance (TPVR), cardiac output (CO), right ventricular hypertrophy (RVH) assessed by the Fulton index [right/(left+septum) ventricular weight] were obtained in CTR and SuHx rats treated with chalcone-4 and compound (1). The bar graph represents means SEM. *** p-value <0.001, **** p-value <0.0001 versus CTR rats. # p-value <0.05,### p-value <0.001 versus vehicle-treated SuHx rats.
The activity of compound (1) vs chalcone-4 was evaluated in an animal model of pulmonary hypertension (PH) (by convention, animal models are still referred to as having PH rather than PAH): the SU-5416 (20 mg/Kg)/Hypoxia rat model. Chalcone-4 and compound (1) (100 mg/kg/day) were prepared in carboxymethylcellulose (CMC 1% in saline) and administered I.P. Rats were treated for 3 weeks in a curative protocol, and were then left for 2 weeks in normoxia. An additional group of healthy rats with no PH was used as the control group (CTR).
PH was induced by a single subcutaneous injection of SU5416 (20 mg/kg) in Wistar rats, followed by a 3-week exposure to chronic hypoxia (10% FiO2). Right ventricular structure and function was assessed by echocardiography using the GE Vivid 9 ultrasound. Before treatment begins, echocardiography measurements of each rat have been performed to validate the presence of PH in animals (acceleration time/ejection time). Then, the rats were randomized by numbering the animals from 1 to 4 in each cage at the beginning of the study, and then looking at a random number table. Each rat has been treated by intraperitoneal administration. At the end of the treatment period, a right heart catheterization (RHC) was performed to determine the PH severity and the cardiac function.
Animals were anesthetized with isoflurane. A polyvinyl catheter was introduced into the right jugular vein and pushed through the right ventricle into the pulmonary artery. Cardiac output in rats was measured using the thermodilution method.
After measurement of hemodynamic parameters, the thorax was opened and the left lung immediately removed and frozen. The right lung was fixed in the distended state with formalin buffer. The right ventricular hypertrophy assessed by the Fulton index [weight ratio of right ventricle (RV) and (left ventricle (LV)+septum)] and the percentage of wall thickness [(2× medial wall thickness/external diameter)×100] and of muscularized vessels were determined as previously described^21.
Histological sections were stained with hematoxylin and eosin, and immunohistochemistry for alpha-smooth muscle actin was performed as previously described^1′. Images were taken with a microscope Nikon Eclipse 80i and NIS-Elements BR 2.30 software.

[5] = PBS with (2-hydroxypropyl)-cyclodextrin (Cdx) 10% w/w, aqueous with cosolvent or surfactant or cyclodextrin, PBS/Cdx (10% w/w), read-out: Solubility PBS/Cdx
[6] = PBS, aqueous buffer, read-out: Solubility PBS
[7] = vs SuHx rats treated with vehicle or chalcone-4

Row | solubility [2, 5] | solubility [2, 6] | inhibition at 10 µM ([3]; Table 3) | inhibition at 10 µM ([3]; Table 2) | inhibition at 10 µM ([3]; Table 4) | SMILES | IC50 on eosinophil recruitment [1] | Pulmonary vascular remodeling [4] | Total pulmonary vascular resistance (TPVR) [4] | Recruitment of eosinophils ([1]; 300 nmol/kg, intranasal route, n=6) | Solubility compared with chalcone-4 ([2]; in words) | Cardiac output [4, 7] | Fulton index (right ventricular hypertrophy) [4, 7]
1 | > 300 µM | 9 µM (≈ 2.6 µg/mL) | 96 ± 2% | – | – | COc1cc(/C=C/C(=O)c2ccc(Cl)cc2)ccc1O [Chalcone-4, (E)-1-(4-Chlorophenyl)-3-(4-hydroxy-3-methoxyphenyl)prop-2-en-1-one, reference compound] | higher than 500 nmol/kg | substantially attenuated the pulmonary vascular remodeling | substantial decrease | – | – | – | –
2 | > 5000 µM | 36.4 µM (≈ 12 µg/mL) | 76 ± 5% | 92 ± 5% | 76 ± 5% | COc1cc(-c2cc(-c3ccc(Cl)cc3)nc(=O)[nH]2)ccc1O [compound (1), 4-(4-Chlorophenyl)-6-(4-hydroxy-3-methoxyphenyl)pyrimidin-2(1H)-one] | 300 nmol/kg | substantially attenuated the pulmonary vascular remodeling | substantial decrease | inhibits the recruitment of eosinophils | better than the solubility of “chalcone-4”; also recorded: more soluble | substantial increase | significant decrease
